Results published in paper PMC12808100, “The non-catalytic DNA polymerase ε subunit is an NPF motif recognition protein” (Nature Communications, 2025).

Experiments:
[1] = test system: endogenous proteins of Jurkat extract; experiment: Single-point nHU-MS with biotinylated NPF motif peptide baits, proteome-wide; format: binding, human; settings: FigureS2 Volcano; prey WASHC3
Source text: To identify the partners of NPF motifs, we used the native holdup (nHU) assay that was recently developed by our team (Fig. 1B). The holdup approach has been extensively used to determine equilibrium dissociation constants of transient interactions mediated by PDZ and SH3 domains, 14-3-3, and human papilloma virus E6 proteins, and even nucleic acid-protein interactions[7],[30]–[35]. In the nHU experiments, a purified bait molecule, or a control compound, is immobilized on a resin at high concentration (typically 10 μM, or higher) and these resin stocks are subsequently mixed with dilute cell extracts. […] This liquid phase contains the unbound prey molecules at near binding equilibrium that can be quantified using selective and quantitative analytical approaches, such as mass spectrometry. Therefore, proteins that interact with the bait molecule will appear to be depleted in the solvent phase and by measuring its relative concentration compared to the control nHU experiment, the degree of binding (θ) can be determined that can be converted to apparent steady-state dissociation constants, according to:1 θ=1−Ifree/Itot=Cbait/Cbait+Kapp where Itot and Ifree are the measured total and bait-depleted equilibrium mass spectrometry total ion intensities of prey proteins, Cbait is the bait molecule concentration and Kapp is the apparent dissociation constant. […]

[2] = target: His6-avi-MBP-tagged POLE2; experiment: Single-point nHU-MS with recombinant His6-avi-MBP-POLE2 bait, Jurkat extract; format: binding, human; settings: significant apparent affinity of endogenous prey protein for POLE2 bait; single-point nHU-MS; Figure S11
Source text: So far, our study only focused on a few hand-picked NPF motifs and studied them as short synthetic peptides. However, many other proteins may be present in the proteome that could bind to POLE2 and their putative NPF motifs are embedded in their natural structures that can greatly affect their binding properties. To investigate interactions between POLE2 and intact, full length proteins proteome-wide, we used nHU-MS experiments with recombinant His6-avi-MBP-tagged POLE2 as bait and purified His6-avi-MBP as a control. Even though we are aware that this recombinant POLE2 may bind to NPF motifs with a somewhat altered affinity, we assumed that this would affect all NPF motif-mediated interactions equally, allowing an unbiased affinity ranking of all identified partners. Single point nHU measurements were performed at 26 μM POLE2 concentration and the recovered supernatant was measured by label free proteomic MS measurements (Fig. 3A, Supplementary Figs. 8A, 9, Supplementary Data 1).
Single-point nHU experiments with protein baits were carried out nearly identically with two key modifications. First, the resin saturation step was carried out by mixing 50 μl streptavidin resin with 0.5−1 ml 50 μM biotinylated protein solution and the mixture was incubated for 1.5 h at 4 °C with constant agitation. Second, instead of using estimated bait concentrations, we measured it experimentally. An extra aliquot of resin stock was prepared alongside the nHU samples that were identically processed that were used to eluate the immobilized proteins under harsh conditions, in order to experimentally quantify the Cbait by using densitometry of Coomassie stained SDS-PAGE that included a protein calibration series. For this, 50 μl bait-saturated resin aliquots were mixed with 200 μl 4x Laemmli Sample Buffer (120 mM Tris-HCl pH 7, 8% SDS, 100 mM DTT, 32% glycerol, 0.004% bromphenol blue, 1% β-mercaptoethanol), instead of cell extract. After 15 min incubation at 95 °C, these samples were analyzed by SDS-PAGE using protein calibration standard, made from recombinant MBP. Densitometry was carried out after Coomassie staining on raw Tif images by using Fiji ImageJ 1.53c and experimental bait concentration were determined by adjusting for molecular weight differences between MBP and MBP-POLE2 constructs.
Samples were digested overnight at 37 °C.

GYPC = target: T1, GYPC (Homo sapiens, UniProt P04921); experiment: nHU-MS peptide bait, prey GYPC; settings: FigureS2 Volcano; prey GYPC
T1 sequence (P04921 1-128): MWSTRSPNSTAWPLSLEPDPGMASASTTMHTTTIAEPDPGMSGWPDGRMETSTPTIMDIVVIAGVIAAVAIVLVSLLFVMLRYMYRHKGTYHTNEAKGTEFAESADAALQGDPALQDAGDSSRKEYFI

UBE2N = target: T2, UBE2N (Homo sapiens, UniProt P61088); experiment: nHU-MS peptide bait, prey UBE2N; settings: FigureS2 Volcano; prey UBE2N
T2 sequence (P61088 1-152): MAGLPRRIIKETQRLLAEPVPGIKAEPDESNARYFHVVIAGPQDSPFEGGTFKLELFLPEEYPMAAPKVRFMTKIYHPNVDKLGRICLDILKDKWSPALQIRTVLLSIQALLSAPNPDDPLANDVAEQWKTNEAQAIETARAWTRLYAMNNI

EHD4 = target: T3, EHD4 (Homo sapiens, UniProt Q9H223); experiment: nHU-MS peptide bait, prey EHD4; settings: FigureS2 Volcano; prey EHD4
T3 sequence (Q9H223 1-541): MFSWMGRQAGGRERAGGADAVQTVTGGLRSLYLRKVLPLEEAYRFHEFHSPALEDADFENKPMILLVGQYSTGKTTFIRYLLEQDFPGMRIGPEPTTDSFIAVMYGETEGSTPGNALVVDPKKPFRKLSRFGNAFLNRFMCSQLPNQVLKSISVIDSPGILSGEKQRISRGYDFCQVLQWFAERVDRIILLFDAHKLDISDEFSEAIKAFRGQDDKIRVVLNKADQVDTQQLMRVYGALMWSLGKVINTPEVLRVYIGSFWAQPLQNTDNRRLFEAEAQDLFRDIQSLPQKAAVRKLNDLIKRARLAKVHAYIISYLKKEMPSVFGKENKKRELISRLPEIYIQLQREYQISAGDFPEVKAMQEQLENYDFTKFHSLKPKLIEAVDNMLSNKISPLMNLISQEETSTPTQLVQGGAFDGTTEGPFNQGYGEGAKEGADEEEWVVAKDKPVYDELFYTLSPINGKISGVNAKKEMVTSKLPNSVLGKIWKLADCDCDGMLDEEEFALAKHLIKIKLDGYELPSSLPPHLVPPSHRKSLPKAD

NSVD [WDHD1] was tested, and the log2FC [1] was -0.6642, the pKapp_sign [2] was 5.025 and the “-log10P” value (GYPC) was 4.7052. The log2FC (GYPC) was -0.6216, the “-log10P” value (UBE2N) was 4.615 and the log2FC (UBE2N) was -0.5674. The “-log10P” value (EHD4) was 4.524 and the log2FC (EHD4) was -0.6115.
